Results reported in patent US9446047B2, “Substituted 2,3-dihydro-1H-inden-1-one retinoic acid-related orphan nuclear receptor antagonists for treating multiple sclerosis” (Arrien Pharmaceuticals LLC, priority 2013, dated 2016).

Tests used:
RORγ-LBD (RORγt) = target: T1, RORγ-LBD (RORγt) (Homo sapiens, UniProt P51449); assay: TR-FRET RORγt Binding Assay; conditions: 6-His(GST)RORγ-LBD, SRC1_2 peptide, read-out: RORγt Binding
T1 construct: the 6-His-(GST) RORγ-LBD was used which expressed and purified from baculovirus infected Sf-21 insect cells; made in house; host or cells: baculovirus-infected Sf-21 insect cells
T1 sequence (P51449 269-508 limits assumed): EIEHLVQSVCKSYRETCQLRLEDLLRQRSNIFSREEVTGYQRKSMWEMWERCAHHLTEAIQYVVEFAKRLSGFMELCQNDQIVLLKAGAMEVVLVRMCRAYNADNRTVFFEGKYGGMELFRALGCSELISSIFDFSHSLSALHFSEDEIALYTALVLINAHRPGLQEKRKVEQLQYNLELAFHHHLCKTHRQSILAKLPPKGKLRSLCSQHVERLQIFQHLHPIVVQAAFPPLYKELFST
Experimental: TR-FRET RORγt Binding Assay: RORγ-LBD contains a 6-His and GST tag peptide from SRC1-2 an aminoterminal biotinyl-[…] was employed and the 6-His-(GST) RORγ-LBD was used which expressed and purified from baculovirus infected Sf-21 insect cells from Invitrogen and purified using glutathione sepharose. […] The peptide binding due to dose-curves of compounds was added the 0.1% DMSO. Fluorescence at wavelength 340 nm was read in each well of […] using an Envision fluorescence reader in Time Resolved mode after overnight incubation at 4° C.

RORγt = target: T2, RORγt (Homo sapiens, UniProt P51449); assay: RORγt-activated IL-17A Prom/LUCPorter HEK 293 cells luciferase reporter assay; assay type: cell-based; conditions: IL-17A Prom/LUCPorter HEK 293 cells transfected with RORγt, 16 h; read-out: RORγt Cell Specific
T2 construct: host or cells: IL-17A Prom/LUCPorter HEK 293 cell line (IMGENEX, IML-301)
T2 sequence (P51449 1-497 isoform P51449-2): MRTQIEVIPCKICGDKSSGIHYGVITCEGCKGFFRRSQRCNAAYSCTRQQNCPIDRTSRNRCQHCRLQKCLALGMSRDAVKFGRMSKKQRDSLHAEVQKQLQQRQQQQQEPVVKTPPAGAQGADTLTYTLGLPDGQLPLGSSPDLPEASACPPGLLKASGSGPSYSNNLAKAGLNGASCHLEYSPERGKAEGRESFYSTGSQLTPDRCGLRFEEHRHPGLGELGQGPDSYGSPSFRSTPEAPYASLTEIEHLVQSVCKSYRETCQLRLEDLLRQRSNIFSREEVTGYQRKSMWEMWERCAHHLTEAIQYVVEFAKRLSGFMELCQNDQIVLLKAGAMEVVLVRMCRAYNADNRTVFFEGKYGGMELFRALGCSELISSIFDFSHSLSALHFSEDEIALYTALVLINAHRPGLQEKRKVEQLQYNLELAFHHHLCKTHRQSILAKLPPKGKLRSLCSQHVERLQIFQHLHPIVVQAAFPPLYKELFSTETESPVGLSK
Experimental: Antagonistic (or inverse agonistic) effects of the test compounds on the RORγt-activated IL-17A Prom/LUCPorter™ HEK 293 cells were analyzed and IC50 of each compound was evaluated. […] Luciferase activity was analyzed using the luciferase reporter assay reagent (IMGENEX, LS100). The data were analyzed using Excel and Prism software. Percent activity was defined as 100×(1−(Well−Control A)/(Control B−Control A)), where Control A was the wells containing cells transfected with RORγt and Control B was the wells containing non-transfected cells. Both Controls A and B were treated with vehicle alone.

[1] = test system: IL-17 release from CD4+ T cells; assay: Cytokine IL-17 estimation by HTRF, IL-17 release from CD4+ T cells; assay type: cell-based; conditions: Homo sapiens, IL-17 release from CD4+ T cells, HTRF, read-out: IL-17 Inhibition
Source text: The assay was designed to assess the potency of test compounds on IL-17 cytokine release from CD4+ T cells. In order to aid in the identification of potent inhibitors, the IC50's determined for the test compounds IL-17 release from CD4+ T cells through the generation of 10 point Dose Response Curves (DRC). Assay methods used to quantify IL-17 secretion is HTRF (Homogenous Time Resolved Fluorescence). IL-17 secreted is detected by anti-IL-17 MAb labeled with XL665, the second MAb labeled with Cryptate, which binds to specific epitopes of human IL-17. Upon close proximity of both acceptor and donor energy transfer (FRET) occurs. This technique has been further enhanced by using long-lived labels combined with the detection on a time-resolved fluorescence basis, allowing […] of prompt fluorescence interferences.
The assay was performed according to manufacturer's instruction. All the reagents were reconstituted according to instructions provided. The reagents were dispensed into a half area 96-well plate in the following order: […] or sample, IL-17 MAbXL665 and 5 μL IL-17 Cryptate. For the negative control, the standard or sample is replaced by […]. The plate is covered with a plate sealer and incubated at rt for 2 h. Following incubation, the plate sealer is removed and the plate is read using HTRF protocol on Envision Microplate reader. All of the data analysis was carried out using Microsoft Excel (2010) and IC50 was determined using GraphPad Prism 4 software. % Inhibition of the test compounds were determined utilizing the following formula: % Inhibition=100−(100*(Average Test Compound Counts−Average Negative Control Counts)/(Average Positive Control Counts−Average Negative Control Counts)).
We have established robust in vitro cell-based HTRF assay for the activation and stimulation of CD4+ T lymphocytes to T helper 17 (Th17) cell differentiation and IL-17 production.

IC50 (RORγ-LBD (RORγt)) [nM] | IC50 (RORγt) [nM] | IC50 [1] [nM] | SMILES
> 1000 | > 1000 | < 500 | COc1cc2c(cc1N1CCC(C)CC1)CC(Cc1ncccc1C(F)(F)F)C2=O (stereo not drawn) [compound 142]
> 1000 | > 1000 | < 500 | COc1cc2c(cc1NC1CCN(C)CC1)CC(Cc1ncccc1C(F)(F)F)C2=O (stereo not drawn) [compound 146]
> 1000 | > 1000 | > 1000 | COc1cc2c(cc1N1CCC(F)CC1)CC(Cc1ncccc1C(F)(F)F)C2=O (stereo not drawn) [compound 151, 5-(4-fluoropiperidin-1-yl)-6-methoxy-2-((3-(trifluoromethyl)pyridin-2-yl)methyl)-2,3-dihydro-1H-inden-1-one]
< 500 | > 1000 | < 500 | COc1cc2c(cc1N1CCOCC1)CC(Cc1cc(C(F)(F)F)ccc1Cl)C2=O (stereo not drawn) [compound 158]
< 500 | > 1000 | < 500 | COc1cc2c(cc1N1CCNCC1)CC(Cc1ncccc1C(F)(F)F)C2=O (stereo not drawn) [compound 164]
> 1000 | > 1000 | < 500 | COc1cc2c(cc1Cl)CC(Cc1ncccc1C(F)(F)F)C2=O (stereo not drawn) [compound 174]
< 500 | > 1000 | < 500 | COc1ccc2c(c1)CC(Cc1ncccc1C(F)(F)F)C2=O (stereo not drawn) [compound 184]
< 500 | < 500 | < 500 | CCS(=O)(=O)Oc1cc2c(cc1OC)CC(Cc1ncccc1C(F)(F)F)C2=O (stereo not drawn) [compound 191]
< 500 | < 500 | < 500 | CCS(=O)(=O)Oc1ccc2c(c1)CC(Cc1ccc(SC(F)(F)F)cc1)C2=O (stereo not drawn) [compound 194]
< 500 | > 1000 | < 500 | COc1cc2c(cc1-c1ccccc1OC(F)(F)F)CC(Cc1ncccc1C(F)(F)F)C2=O (stereo not drawn) [compound 213]
< 500 | < 500 | < 500 | COc1cc2c(cc1N1CCOCC1)CC(Cc1cc(C(F)(F)F)cc(C(O)(C(F)(F)F)C(F)(F)F)c1)C2=O (stereo not drawn) [compound 229, 2-(3-(1,1,1,3,3,3-hexafluoro-2-hydroxypropan-2-yl)-5-(trifluoromethyl)benzyl)-6-methoxy-5-morpholino-2,3-dihydro-1H-inden-1-one]
< 500 | < 500 | < 500 | COc1cc2c(cc1N1CCOCC1)CC(Cc1c(F)ccc(C(O)(C(F)(F)F)C(F)(F)F)c1F)C2=O (stereo not drawn) [compound 232, 2-(2,6-difluoro-3-(1,1,1,3,3,3-hexafluoro-2-hydroxypropan-2-yl)benzyl)-6-methoxy-5-morpholino-2,3-dihydro-1H-inden-1-one]

More lines, now with the values behind:

SMILES | IC50 (RORγ-LBD (RORγt)) [nM] | IC50 (RORγt) [nM] | IC50 [1] [nM]
COc1cc2c(c(N3CCC(C)CC3)c1OC)CC(Cc1ncccc1C(F)(F)F)C2=O (stereo not drawn) [compound 133, 5,6-dimethoxy-4-(4-methylpiperidin-1-yl)-2-((3-(trifluoromethyl)pyridin-2-yl)methyl)-2,3-dihydro-1H-inden-1-one] | > 1000 | > 1000 | > 1000
COc1cc2c(cc1N1CCC(C)CC1)CC(Cc1ccc(SC(F)(F)F)cc1)C2=O (stereo not drawn) [compound 140] | < 500 | > 1000 | > 10000
COc1cc2c(cc1NC1CCN(C)CC1)CC(Cc1ccc(SC(F)(F)F)cc1)C2=O (stereo not drawn) [compound 144] | > 1000 | > 1000 | > 1000
COc1cc2c(cc1N1CCC(F)CC1)CC(Cc1ccc(SC(F)(F)F)cc1)C2=O (stereo not drawn) [compound 149, 5-(4-fluoropiperidin-1-yl)-6-methoxy-2-(4-((trifluoromethyl)thio)benzyl)-2,3-dihydro-1H-inden-1-one] | < 500 | > 10000 | > 1000
COc1cc2c(cc1N1CCC(C)CC1)CC(Cc1cccc(C(F)(F)F)c1)C2=O (stereo not drawn) [compound 154] | > 1000 | > 1000 | < 500
COc1cc2c(cc1N1CCN(C)CC1)CC(Cc1cc(C(F)(F)F)ccc1Cl)C2=O (stereo not drawn) [compound 161, 2-(2-chloro-5-(trifluoromethyl)benzyl)-6-methoxy-5-(4-methylpiperazin-1-yl)-2,3-dihydro-1H-inden-1-one] | > 1000 | < 500 | > 1000
COc1ccc2c(c1OC)CC(Cc1ccc(SC(F)(F)F)cc1)C2=O (stereo not drawn) [compound 167] | > 1000 | > 1000 | < 500
COc1ccc2c(c1OC)CC(Cc1ncccc1C(F)(F)F)C2=O (stereo not drawn) [compound 169] | > 1000 | > 1000 | < 500
COc1cc2c(cc1Cl)CC(Cc1ccc(SC(F)(F)F)cc1)C2=O (stereo not drawn) [compound 172] | > 1000 | > 1000 | < 500
COc1ccc2c(c1Cl)CC(Cc1ccc(SC(F)(F)F)cc1)C2=O (stereo not drawn) [compound 177] | < 500 | > 1000 | < 500
COc1ccc2c(c1Cl)CC(Cc1ncccc1C(F)(F)F)C2=O (stereo not drawn) [compound 179] | < 500 | > 1000 | < 500
COc1ccc2c(c1)CC(Cc1ccc(SC(F)(F)F)cc1)C2=O (stereo not drawn) [compound 182] | > 1000 | > 1000 | < 500
COc1cc2c(cc1O)C(=O)C(Cc1ccc(SC(F)(F)F)cc1)C2 (stereo not drawn) [compound 187] | > 1000 | > 1000 | < 500
CCS(=O)(=O)Oc1cc2c(cc1OC)CC(Cc1ccc(SC(F)(F)F)cc1)C2=O (stereo not drawn) [compound 188] | < 500 | > 1000 | < 500
COc1cc2c(cc1O)C(=O)C(Cc1ncccc1C(F)(F)F)C2 (stereo not drawn) [compound 190] | < 500 | > 1000 | < 500
O=C1c2ccc(O)cc2CC1Cc1ccc(SC(F)(F)F)cc1 (stereo not drawn) [compound 193] | < 500 | < 500 | < 500
COc1cc2c(cc1-c1ccc(OC(F)(F)F)cc1F)CC(Cc1ncccc1C(F)(F)F)C2=O (stereo not drawn) [compound 216] | > 1000 | > 1000 | < 500
COc1cc2c(cc1N1CCN(C)CC1)CC(Cc1cc(OC(F)(F)F)cc(C(O)(C(F)(F)F)C(F)(F)F)c1)C2=O (stereo not drawn) [compound 236, 2-(3-(1,1,1,3,3,3-hexafluoro-2-hydroxypropan-2-yl)-5-(trifluoromethoxy)benzyl)-6-methoxy-5-(4-methylpiperazin-1-yl)-2,3-dihydro-1H-inden-1-one] | > 1000 | > 1000 | < 500
